Columns and labels:
[1] = tested on: rabbit gastric lipase (RGL) followed by porcine pancreatic lipase (PPL); assay: Sequential in vitro digestion in simulated gastric fluid (SGF) followed by simulated intestinal fluid (SIF), pH-stat
Method: 10 wt % oil in water emulsions stabilised by 0.3 wt % polyoxyethylene sorbitan mono-oleate (Tween® 80) were prepared by mixing the Tween 80 into the oil phase at 40° C., then mixing with the water phase using a magnetic stirrer. An emulsion was then created using a Hielscher UP 400S ultrasonic probe homogeniser equipped with a 5 mm diameter rod-like probe by applying 100% amplitude at 100% cycle for 2 minutes whilst the sample was cooled using ice water.
The lipid emulsion (2 mL) containing 200 mg of fat was subjected to gastrointestinal in vitro lipolysis. The digestions were conducted in thermostated glass vessels (37° C.) in a pH-STAT setup controlled by a TIM 856 bi-burette pH-STAT (Radiometer Analytical, France). For gastric digestion, the sample was incubated for 90 minutes with 8.5 mL of simulated gastric fluid (SGF), which consisted of 150 mM NaCl, 450 U/mL pepsin, 18 U/mL rabbit gastric lipase at 37° C. and a pH of 5.5.
The intestinal digestion step was performed in the pH stat where the pH was kept constant at 6.8 by addition of NaOH (0.05 M). A bile salt mixture (bile salts prepared with tris buffer, 5 mM tris, 150 mM NaCl) and calcium solution (20 mM Ca, 176 5 mM tris, 150 mM NaCl) were added to the SGF-sample mixture. This mixture was transferred to the pH-stat, where the pH was adjusted to approximately 6.78. The intestinal digestion step starts when the temperature reaches 37±0.5° C. The pH was adjusted to pH 6.8 and after incubation of two minutes at this pH and temperature, a pancreatin solution (5 mM tris, 150 mM NaCl at pH 6.8) was added. The final composition of the intestinal fluid was 10 mM CaCl2, 12 mM mixed bile salts, 0.75 mM phospholipid, 150 mM NaCl and 4 mM tris(hydroxymethyl)aminomethane buffer. The intestinal digestion step was carried out for 3 hours in a titration manager from Radiometer. During the intestinal phase of digestion, the kinetics of digestion were followed using a pH-stat (TIM856, Radiometer) technique and expressed as titratable acid (rather than fatty acid) that was calculated by the equation: […]

[2] = tested on: porcine pancreatic lipase (PPL); settings: pig, 3 h, pH 11.5
Source text: Because many fatty acids are only partially ionised at pH 6.8, direct titration gives only partial picture of the extent of lipid digestion, instead back titration to pH 11.5 or GC-FAME analysis is required to estimate the full extent of digestion.

Question: Which “Initial lipolysis rate in SIF compartment” value ([1]; SGF-SIF sequential digestion (90 minutes SGF pH 5.5, then SIF pH 6.8)) does the source give for `CCCC(=O)OCC(COC(=O)CCC)OC(=O)CCC` [tributyrin] here?
Answer: 44.1 ± 8.8 µmol/min

Question: And the “Lipolysis by gastric lipase” value ([1]; indicated by decreased total fatty acid release during SIF after RGL pre-exposure)?
Answer: ~60%

Question: And the “Hydrolysis in the stomach (gastric lipolysis), in words” value ([1]; simulated gastric compartment)?
Answer: extensive hydrolysis in the stomach

Question: What about the Extent of digestion [2] of the same compound?
Answer: 101.5±0.9%

From US20220195332A1, “DIETARY BUTYRATE AND ITS USES” (SOCIETE DES PRODUITS NESTLE S.A., priority 2019, published 2022)
